Test results as given in article PMC7380097, “Measurement of Bradykinin Formation and Degradation in Blood Plasma: Relevance for Acquired Angioedema Associated With Angiotensin Converting Enzyme Inhibition and for Hereditary Angioedema Due to Factor XII or Plasminogen Gene Variants” (Frontiers in Medicine, 2020).
Where “and” joins values, the source holds several entries; their conditions need not be identical. Identical values can stand only once. Entries after “also recorded” stand apart in the source; their conditions may differ. Counter-ions that a name gives are not always drawn. Residues, ends and D or L forms follow the SMILES beside them.

Legend:
human B2 receptor = details: cited from earlier work
[1] = cited from earlier work
Excerpt: ACE blockade greatly increases BK persistence and pharmacological effect in human whole blood under a variety of in vitro stimulation conditions ([20]). Membrane-bound ACE produced by vascular endothelial cells is shed in an apparently regulated manner into blood plasma ([34]), allowing the use of blood/plasma/serum to monitor ACE activity in human subjects.

in vitro = in vitro ADME; details: human; for half-life at 100 nM: plasma
Description: (§1) Venous blood was collected without contact with glass in plastic blood collection tubes with 0.11 M sodium citrate (BD Vacutainer Plus, BD Biosciences, Franklin Lake, NJ); the plasma was obtained by centrifugation (1,300 g, 20 min, room temperature), stored at −80°C until use and/or expedition on dry ice to Quebec City. The in vitro activation of plasma at 37°C (200 μl per experimental point sample) was performed precisely as described ([21]) in the presence of enalaprilat (final concentration 130 nM) to reduce the breakdown of BK. The samples were incubated for up to 120 min under rotary agitation (300 rpm) without any added stimulant or with recombinant human tissue kallikrein (KLK-1, 10 nM; gift from DiaMedica, Inc.), with the particulate contact system activator Pacific Hemostasis Kontact-APTT™ (2% v/v; used without the calcium supplement; composed mainly of magnesium aluminum silica and rabbit brain phospholipid; ThermoFisher Scientific) or with recombinant tissue plasminogen activator (tPA, 169 nM; Cathflo, Roche). The tPA concentration was reproduced from Molinaro et al. ([19]) and within the range reached in plasma during therapeutic fibrinolysis. Biotechnological inhibitors used in the mechanistic analysis of iBK formation were previously exploited ([20], [21]) and are listed in Table 2.
An additional set of experiments aimed at measuring the rate of BK breakdown in the presence or absence of the ACE inhibitor enalaprilat or in plasma from selected human subjects: synthetic BK (100 nM) was added to 200 μl of plasma from healthy volunteers or HAE-nC1-INH patients and incubated at 37°C under agitation for 0–20 min.
In all experiments dealing with BK EIA, the reactions were stopped by adding 1 ml of cold ethanol, as described ([21]). After further incubation on ice-water for an additional period of at least 60 min, the plasma/ethanol mixtures were cleared of precipitated proteins by centrifugation (13,000 g, 1 min), evaporated to dryness (Speed Vac apparatus) and stored at −80°C until used for BK determination. Then, the samples were reconstituted with 200 μl of distilled water, further diluted 100-fold (1,000-fold for selected samples) with the supplied EIA buffer and directly applied in duplicate to the BK EIA as recommended by the manufacturer (Phoenix Pharmaceuticals, Burlingame, CA; cat. no. EK-009-01; 96-well plate format). The BK EIA is fully cross-reactive with Lys-BK, but not at all with des-Arg^9-BK or Lys-des-Arg^9-BK.
Numerical values are reported as means ± standard errors of the mean (S.E.M.). Sets of values were compared with Kruskall-Wallis test (non-parametric ANOVA) followed by Dunn's multiple comparison test to compare selected pairs of values. Pairs of values were compared using Mann-Whitney test (Prism 5.0, GraphPad Software Inc., San Diego, CA). The half-life (t1/2) of iBK was calculated as the first order decay procedure in a software suite ([30]).

human B1 receptor = details: cited from earlier work
Excerpt: In the plasminogen sequence, the residue 330 is not proximal to a physiological cleavage site or to the catalytic site: it is rather located within a potential adhesion site in the kringle 3 domain of the molecule ([5]). However, the K330E variant is associated with a distinct N-glysosylation pattern and an increased susceptibility to activation by urokinase-type plasminogen activator (uPA), but not by tPA (assessed only using a chromogenic substrate) ([41]). […] If uP ...

[2] = system: angiotensin converting enzyme (ACE); experiment: Effect of oral enalapril maleate on ex vivo BK half-life in plasma of healthy volunteers; parameters: species or system human; details: 2 daily oral doses of enalapril maleate 10 mg, healthy volunteers (two), plasma 24 h after the last dose vs before dosing
Description: Numerical values are reported as means ± standard errors of the mean (S.E.M.). […] The half-life (t1/2) of iBK was calculated as the first order decay procedure in a software suite ([30]).

[3] = Blood pressure of healthy volunteers taking enalapril maleate; assay type: in vivo, human; details: two normotensive healthy volunteers, 2 daily doses of enalapril maleate 10 mg (Figure S1)
Description: We previously reported that iBK formation was negligible in either whole blood or plasma incubated at 37°C without stimulus both in healthy donors and HAE patients sampled during remission (HAE-C1-INH type I or II) ([20], [21]). This may be paradoxical because HK is spontaneously and progressively cleaved in the blood of patients with HAE-C1-INH ([15], [16]) or HAE-nC1-INH ([17]). A possible explanation is the efficient clearance of kinins.

[4] = system: iBK generation induced by tPA; experiment: tPA-induced iBK generation in plasma from HAE-FXII (T328K) patients, effect of biotechnological inhibitors; assay type: biochemical, human; details: tPA 169 nM, 20 min incubation, enalaprilat 130 nM present, inhibitor added 5 min before stimulus, 37°C, EIA
Description: as §1, with “2. […]” for “2.”

[5] = system: iBK generation induced by Kontact-APTT; experiment: Kontact-APTT-induced iBK generation in plasma from HAE-FXII (T328K) patients, effect of biotechnological inhibitors; assay type: biochemical, human; details: Kontact-APTT 2% v/v, 5 min incubation, enalaprilat 130 nM present, inhibitor added 5 min before stimulus, 37°C, EIA
Description: as §1, with “2. […]” for “2.”

[6] = system: KLK-1-induced iBK formation; experiment: KLK-1-induced iBK formation in plasma from HAE-PLG patients, effect of lanadelumab; assay type: biochemical, human; details: KLK-1 10 nM, 5 min incubation, inhibitor added 5 min before KLK-1, enalaprilat 130 nM present, EIA
Description: as §1, with “2. […]” for “2.”

Lys-BK: kinin formed by KLK-1 mainly from low molecular weight kininogen; direct B2 receptor agonist
potency relative to BK at the human B2 receptor (human B2 receptor): approximately equipotent

NC(N)=NCCC[C@H](NC(=O)[C@H](Cc1ccccc1)NC(=O)[C@@H]1CCCN1C(=O)[C@H](CO)NC(=O)[C@H](Cc1ccccc1)NC(=O)CNC(=O)[C@@H]1CCCN1C(=O)[C@@H]1CCCN1C(=O)[C@@H](N)CCCN=C(N)N)C(=O)O [BK, Bradykinin] (H-RPPGFSPFR-OH)
t1/2 of BK in serum [1]: 27 s
half-life at 100 nM (in vitro; female, BK t1/2 in plasma of family d (HAE-nC1-INH, unknown cause)): 22.5 s
half-life (t1/2) of BK in normal plasma (in vitro): 33 s
half-life at 100 nM (in vitro; BK t1/2 in plasma 24 h after 2nd oral dose of enalapril maleate): 190 s
half-life at 100 nM (in vitro; BK t1/2 in plasma before dosing (baseline)): 39.5 s
half-life at 100 nM (in vitro; half-life (t1/2) of BK in normal plasma): 34 s
half-life at 100 nM (in vitro; half-life (t1/2) of BK in plasma with ACE blocked by enalaprilat): 426 s

des-Arg^9-BK
affinity for the human form of the B1 receptor (human B1 receptor): low affinity
change of half-life of synthetic des-Arg9-BK when ACE is blocked [1]: doubled

Lys-des-Arg^9-BK
agonist status at the human B1 receptor (human B1 receptor): optimal agonist

CCOC(=O)[C@H](CCc1ccccc1)N[C@@H](C)C(=O)N1CCC[C@H]1C(=O)O [enalapril maleate]
fold increase of BK t1/2 in plasma after oral dosing [2]: ~ 5 fold and 4.8 fold
blood pressure change during the experiment [3]: slight reversible drop

B1: lanadelumab: Human monoclonal antibody, target plasma kallikrein (antibody, chains of the INN, looked up, V domains shown)
VH: EVQLLESGGGLVQPGGSLRLSCAASGFTFSHYIMMWVRQAPGKGLEWVSGIYSSGGITVYADSVKGRFTISRDNSKNTLYLQMNSLRAEDTAVYYCAYRRIGVPRRDEFDIWGQGTMVTVSS
VL: DIQMTQSPSTLSASVGDRVTITCRASQSISSWLAWYQQKPGKAPKLLIYKASTLESGVPSRFSGSGSGTEFTLTISSLQPDDFATYYCQQYNTYWTFGQGTKVEIK
effect on early iBK release induced by tPA [4]: significantly decreased; also recorded: suppressed
effect on early iBK response to Kontact-APTT [5]: significantly decreased
effect on KLK-1-induced iBK formation [6]: not decreased; also recorded: Lack of effect; also recorded: did not inhibit
